Values quoted from earlier work in US4439425A, “Peptide derivatives” (Ciba-Geigy Corporation, priority 1979, dated 1984).

Tested on: lymphocytes
Conditions: Z. Immun.-Forschung 153, 11-22 (1977)

## murein lipoprotein: murein lipoprotein of the outer cell wall of Escherichia coli
  in vitro mitogenic activity: in vitro mitogenic activity towards some lymphocytes
